Data taken from patent US20160193328A1, “Immunoadjuvant Compositions and uses Thereof” (INSERM (INSTITUT NATIONAL DE LA SANTÉ ET DE LA RECHERCHE …, priority 2013, published 2016).

Key:
[1] = system: 1W1K-specific Tfh cells; assay: 1W1K-specific CD4+ T cell and Tfh cell response in draining lymph nodes after immunisation (pMHCII tetramer flow cytometry); format: in vivo, C57Bl/6 mice; conditions: for 1W1K-specific Tfh cells in the dLN / amount of 1W1K-specific CD4+ T cells / total number of CD4+ T cells in the dLN: TLR agonist added to IFA; for 1W1K-specific Tfh cells in the dLN: 40 μg 1W1K s.c., 9 days, FIG. 1A; for amount of 1W1K-specific CD4+ T cells / total number of CD4+ T cells in the dLN: 1W1K s.c., peak of primary response, versus IFA only
Protocol: (§1) Mice were either i.p. injected or immunized s.c. at the base of tail with 40 μg of peptide 1W1K, 100 μg of OVA, 200 μg of Ea-FITC in the indicated adjuvant with or without soluble TLR agonist, in a final volume of 200 µL. To target moDC, mice were immunised s.c. with 1.2×1010 beads (which correspond to 40 μg Ea52-68, 1W1K or 100 μg OVA) in indicated adjuvant with or without soluble TLR agonist. At indicated times post-immunisation, spleen or dLN (inguinal and periaortic) were collected and cells were stained for flow cytometry analysis.
To block IL-6 signalling, i.p. injections of 100 μg D7715A7 mAb (anti-IL-6R[…], eBioscience) or Rat IgG2b isotype control were performed at day −1 and +4 post-immunisation. To deplete mice of monocytes, i.v. injections of 250 μL of clodronate liposomes or control PBS liposomes (clodronateliposome.com) were performed from day −1 every second day.
For population analysis, dLN were harvested from mice and single cell suspensions were prepared in PBS with 2% FCS, 5 mM EDTA. For DC analysis, lymphoid organs were dissociated using 125 μg/mL LiberaseTL (Roche) and 40 μg/mL DNAase I (Sigma-Aldrich) at 37° C. for 20 min. 1×10^8 cells/ml were labelled at 4° C. for 45 min with mAbs: Reagents from BD Pharmingen [AlexaFluor488-K112-91 (anti-Bcl-6); PE-M1/70 (anti-CD11b), PE-281-2 (anti-CD138); Cy5PE-M1/70 (anti-CD11b); APC-2G8 (anti-CXCR5); V500-500A2 (anti-CD3); Pacific Blue-53-6.7 (anti-CD8α); Biotin-Jo2 (anti-CD95); Biotin-2G8 (anti-CXCR5)], Reagents from eBioscience [FITC-eBio1D3 (anti-CD19), FITC-RA3-6B2 (anti-B220), FITC-RM4-5 (anti-CD4); PE-MAR-1 (anti-FceR1), PE-205yekta (anti-CD205), PE-2E7 (anti-CD 103), PE-MP5-20F3 (anti-IL-6); Cy5PE-RM4-5 (anti-CD4); Cy7PE-N418 (anti-CD11c), Cy7PE-53-6.7 (anti-CD8α); Cy5.5PE-anti-CD19, Cy5.5PE-HK1.4 (anti-Ly-6c); APC-N418; AlexaFluor647 anti-GL-7; AlexaFluor700-MEL-14 (anti-CD62L), AlexaFluor700-eBio1D3, AlexaFluor700-IM7 (anti-CD44); APCeFluor780-IM7, APCeFluor780-BM8 (anti-F4/80), APCeFluor780-RA3-6B2; eFluor450-11-26c (anti-IgD), eFluor450-MEL-14; biotin-Y-Ae], reagent from R&D PE-475301(anti-CCR2). Before data collection […] propidium iodide (PI) was added to samples. 1W1K-IAb tetramer was obtained from NIH Tetramer core facility. For IL-6 intracellular staining cell suspensions were incubated for 4 hr at 37° C. in the presence of 3 μg/mL Golgi Plug (BD Bioscience) and 4 μM Monensin, fixed and permabilised using BD Fixation/Permeabilisation kit. Before permeabilisation cells were stained with Fixable Viability Dye eFluor450 or eFluor660 (eBioscience). Data were collected on a BD LSRII™ (BD Biosciences) and analysed using FlowJo software (Tree Star).
6-8-wk-old C57Bl/6 mice were irradiated (0.85 Gy) the day before i.v. injection of 1×10^7 T cell-depleted BM cells that consisted of a mix of 70% from CD11c-DTR or JHT supplemented with 30% from TLR9KO, Myd88KO, TRIFKO, IL-6K0 or wt CD45.1 C57Bl/6 mice. After 8 wk, the chimeras with CD11c-DTR BM were i.p. treated every second day with 4 ng/g body weight DTx (Sigma-Aldrich) and 1 day before immunisation with 20 ng/mouse s.c. Treated animals were then s.c. immunised either with 1W1K or OVA as described above.
The combination of adjuvant to a peptide favours robust T-dependent B cell immunity. To test whether addition of TLR agonists to other vaccine adjuvant could have a synergistic effect on the induced immune response, we examined the I-Ab restricted murine CD4+ T cell response to a peptide variant ([…], called 1W1K peptide hereafter, SEQ ID NO:1) of the I-E alpha chain immunodominant peptide 52-68 (Ea52-68) in C57Bl/6 mice. We followed the 1W1K-specific CD4+ T cells with the corresponding pMHCII tetramer in the draining lymph nodes (dLN) after sub-cutaneous (s.c.) immunisation in Incomplete Freund's adjuvant (IFA). At the peak of the effector CD4+ T cell response, we detected the CD44+ and pMHCII tetramer+1W1K-specific CD4+ T cells in the dLN (data not shown). […]

[2] = system: OVA-specific IgG; assay: OVA-specific IgG in serum by ELISA after immunisation; format: in vivo, C57Bl/6 mice
[3] = system: OVA-specific B cells; assay: OVA-specific B cell response in dLN after immunisation (flow cytometry); format: in vivo, C57Bl/6 mice; conditions: TLR agonist added to IFA; 100 μg OVA s.c.; 14 days; FIG. 2A
Protocol: as §1
For population analysis, dLN were harvested from mice and single cell suspensions were prepared in PBS with 2% FCS, 5 mM EDTA. For DC analysis, lymphoid organs were dissociated using 125 μg/mL LiberaseTL (Roche) and 40 μg/mL DNAase I (Sigma-Aldrich) at 37° C. for 20 min. […] Data were collected on a BD LSRII™ (BD Biosciences) and analysed using FlowJo software (Tree Star).
We hypothesized that an increase in the CD4+ T cell help and specifically an increase of the Tfh cells, the critical regulators of B cell responses, could result in a greater B cell response to the Ag after addition of TLR agonist to another adjuvant. The murine B cell response to ovalbumin (OVA) in wt animals is a valuable immunisation model that can be monitored via the polyclonal Ig repertoires. OVA-specific B cells can be detected by flow cytometry as CD3-IgD− cells that bind specifically to A1exa488-conjugated OVA (OVA+) (data not shown). […] Using this strategy, we determined if addition of TLR agonist to IFA impacts OVA-specific B cell responses in vivo. […]

[4] = system: IL-6; assay: IL-6 in serum of immunised animals (IL-6 ELISA kit); format: in vivo, mice; conditions: 4 hours after i.p. injection; 1W1K in Alum
[5] = BM chimeras (JHT + MyD88KO) lacking MyD88 signalling in B cells, added to IFA

For poly(I:C), the “1W1K-specific Tfh cells in the dLN” value [1] was “had no enhancing effect”, the “amount of 1W1K-specific CD4+ T cells” value [1] was “did not statistically change” and the “total number of CD4+ T cells in the dLN” value [1] was “did not statistically change”.
With lipopolysaccharide [LPS] the “enhancing effect on 1W1K-specific Tfh cells” value [1, 5] was “also observed”, the “1W1K-specific Tfh cells in the dLN” value [1] was “induced an increase” and the “amount of 1W1K-specific CD4+ T cells” value [1] was “did not statistically change”. For the same substance, the “total number of CD4+ T cells in the dLN” value [1] was “did not statistically change”, the “1W1K-specific Tfh cell differentiation” value ([1]; added to Alum, i.p., JHT mice (no functional B cells), 5 days) was “enhanced” and the “increase of 1W1K-specific Tfh response” value ([1]; chimeras (CD11c-DTR + MyD88KO), DTx: MyD88 signalling in CD11c+ cells impaired, FIG. 3B) was “not observed”. The “enhancing effect on OVA-specific IgG” value [2, 5] was “also observed”, the “circulating OVA-specific IgG” value ([2]; IFA supplemented with TLR agonist, 14 days, FIG. 2B) was “significant increase” and the “OVA-specific GC-B cells” value [3] was “increased”. The “OVA-specific PC” value [3] was “increased”, the “overall OVA-specific B cells” value [3] was “increased” and the “IL-6 in the serum, sensitised JHT animals compared to sensitised wt mice” value [4] was “significant decrease”.
